The test system of data set [1] is HeLa. The note with it: Homo sapiens, dose 100.0 nM, time 15.0 min.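 Also: HDAC inhibition in HeLa cells, read on a microplate reader using an acetylated peptide AMC substrate, expressed relative to control.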
For data set [2], the system named is Mus musculus. The data set can be described thus: Inhibition of renal cystogenesis in PKD1 knockout ADPKD C57BL/6 mouse assessed as reduction in renal cyst formation at 1 mg/kg, sc administered once daily for 1 week by H and E staining based analysis. In kind it is functional, organism-based. Particulars: time 1.0 weeks.
A short description of data set [3]: Tmax in C57BL/6 mouse at 1 mg/kg, sc by LC-MS/MS analysis. It counts as ADME, organism-based. Particulars: in vivo.
Data set [4] concerns MDCK. In words: Upregulation of acetylation of alpha tubulin level in MDCK cells incubated for 24 hrs by Western blot analysis. The note with it: Canis lupus familiaris, dose 0.3-1 µM. It counts as functional, cell-based. (A western blot detects proteins with antibodies after separation by electrophoresis.)
For data set [5], the system named is Mus musculus. The data set can be described thus: Inhibition of renal cystogenesis in PKD1 knockout ADPKD C57BL/6 mouse assessed as reduction in kidney size at 1 mg/kg, sc administered once daily for 1 week. In kind it is functional, organism-based. Particulars: time 1.0 weeks.
Data set [6] concerns MDCK. In words: Antiproliferative activity against MDCK cells at 0.3 to 1 uM by Hoechst 33342 and EdU staining based analysis. The note with it: Canis lupus familiaris, dose 0.3-1 µM. It counts as functional, cell-based.
Data set [7] concerns Mus musculus. The data set can be described thus: Inhibition of renal cystogenesis in PKD1 knockout ADPKD C57BL/6 mouse assessed as decrease in kidney size at 1 mg/kg, sc administered once daily for 1 week by H and E staining based analysis. It counts as functional, organism-based. The note with it: time 1.0 weeks.
Data set [8] has as its system Mus musculus. In words: Inhibition of renal cystogenesis in PKD1 knockout ADPKD C57BL/6 mouse assessed as increase in renal parenchyma at 1 mg/kg, sc administered once daily for 1 week by H and E staining based analysis. Particulars: time 1.0 weeks. It counts as functional, organism-based.
The nature of data set [9]: Half life in C57BL/6 mouse at 1 mg/kg, sc by LC-MS/MS analysis. It counts as ADME, organism-based. Particulars: in vivo.
A short description of data set [10]: AUC (0 to infinity) in C57BL/6 mouse at 1 mg/kg, sc by LC-MS/MS analysis. In kind it is ADME, organism-based. The note with it: in vivo.
In data set [11] the test system is Kidney. The data set can be described thus: Ex vivo inhibition of renal cystogenesis in wild type C57BL/6 mouse kidney assessed as suppression of 8-Br-cAMP-induced cyst development at 1 uM treated for 6 days by inverted microscopic analysis. It counts as functional, tissue-based. The note with it: time 6.0 day.
Data set [12] deals with Mus musculus. In words: Inhibition of renal cystogenesis in PKD1 knockout ADPKD C57BL/6 mouse assessed as reduction kidney to body weight ratio index at 1 mg/kg, sc administered once daily for 1 week (19.5 +/-0.5%). Particulars: time 1 weeks. More on the design: scale not given: the % may be the effect or the level left. In kind it is functional.
Data set [13] in a line: AUC (0 to t) in C57BL/6 mouse at 1 mg/kg, sc by LC-MS/MS analysis. In kind it is ADME, organism-based. Particulars: in vivo.
Data set [14] concerns MDCK. The data set can be described thus: Cytotoxicity against MDCK cells at 0.3 to 1 uM by CCK-8 assay. The note with it: dog, dose 0.3-1 µM. In kind it is toxicity, cell-based, Canis lupus familiaris. Background: Formazan colour is commonly taken as a measure of viable cells.
Data set [15] in a line: Cmax in C57BL/6 mouse at 1 mg/kg, sc by LC-MS/MS analysis. In kind it is ADME, organism-based. The note with it: in vivo.
For data set [16], the system named is MDCK. The data set can be described thus: Inhibition of cystogenesis in PKD1 knockout ADPKD MDCK cells assessed as inhibition of cyst formation at 0.3 to 1 uM. Particulars: Canis lupus familiaris, dose 0.3-1 µM, time 4-10 day, TDE = time-dependent effect. In kind it is functional, cell-based.
Data set [17] is described as follows: Terminal elimination half life in C57BL/6 mouse at 1 mg/kg, sc by LC-MS/MS analysis. It counts as ADME, organism-based. The note with it: in vivo, read-out: LambdaZ (converted).
The test system of data set [18] is MDCK. In words: Inhibition of colony formation in MDCK cells measured after 8 days by crystal violet staining based analysis. It counts as functional, cell-based. Particulars: Canis lupus familiaris, dose 0.3-1 µM, time 8.0 day.

In general, inhibition refers to the drop in the measured response relative to a control, in per cent. As usually defined, the Tmax is the time from dosing to the highest level. One may read the half-life as the time needed for the level to fall by half in the phase considered. One may read the AUC(0-inf) as the area under the concentration-time curve extrapolated to infinity. Broadly, the AUC(0-t) is exposure summed from dosing to a finite time, without extrapolation to infinity. The term Cmax denotes the maximum level reached in the sampled fluid or tissue.

The source made the active and inactive calls.

The compound `CCOc1cc(-c2nc3ccccc3s2)ccc1OCCCCCCC(=O)NO` yielded an inhibition in [1] of 75%.
Still for that read-out and setting: for `Cc1ccc2nc(-c3ccc(OCCCCCCC(=O)NO)cc3)sc2c1` the value was 52.3%; for `COc1ccc(-c2nc3ccc(Cl)cc3s2)cc1OCCCCCCC(=O)NO`, 44.5%.
For the compound `COc1ccc(-c2nc3ccccc3s2)cc1OCCCCCCC(=O)NO`, the result in data set [2], in data set [5], in data set [6], in data set [7], in data set [8] and in data set [11] was Active. Besides, the Tmax in [3] is 0.25 h. In addition, the Activity result in [4] was “Dose-Dependent Effect”; in [12], 14.2%; in data set [14], “Non-Toxic”. In [9], the half-life was 5.75 h. In data set [10], this compound displayed an AUC(0-inf) of 614 ng·h/mL. The same compound came in with an area under the curve AUC(0-t) in [13] of 597 ng·h/mL. Further, the peak level in data set [15] (Cmax) was 572 ng/mL. Also, the inhibition result was “Tde” in data set [16], 88% in [1] and “Dose-Dependent Effect” in data set [18]. Further, the k el in [17] was 3.61e-05 s⁻¹.
In turn, `O=C(CCCCCOc1ccc(-c2nc3ccccc3s2)cc1)NO` came in with an inhibition in data set [1] of 26.8%.
Same read-out and setting: the figure for `O=C(CCCCCCOc1cccc(-c2nc3ccccc3s2)c1F)NO` is 68.7%.
For the compound `O=C(CCCCCCOc1cccc(-c2nc3ccccc3s2)c1)NO`, in [1], the inhibition amounted to 76.8%.
In data set [1], `COc1ccc(-c2nc3ccc(F)cc3s2)cc1OCCCCCCC(=O)NO` showed an inhibition of 77.3%.
The same measure, in the same setting: the figure for `COc1ccc(-c2nc3ccc(C)cc3s2)cc1OCCCCCCC(=O)NO` is 67.8%; for `COc1ccc2nc(-c3ccc(OC)c(OCCCCCCC(=O)NO)c3)sc2c1` it is 80.3%; for `O=C(CCCOc1cccc(-c2nc3ccccc3s2)c1)NO` it is 41.2%.
As to `Cc1ccccc1C(=O)Nc1ccc(C(=O)N2CCCC(O)c3cc(Cl)ccc32)c(C)c1` (configuration not stated) [TOLVAPTAN], the Activity in data set [12] was found to be 15.8%.
Compound `O=C(CCCCCCOc1ccc(-c2nc3ccc(F)cc3s2)cc1)NO` yielded an inhibition in [1] of 61.2%.
Still for that read-out and setting: for `O=C(COc1cccc(-c2nc3ccccc3s2)c1)NO` the value was 66.5%.
On to `O=C(CCCCCCCOc1ccc(-c2nc3ccccc3s2)cc1)NO`, for which, in data set [1], the inhibition stood at 9.17%.
Still for that read-out and setting: for `O=C(CCCCCOc1cccc(-c2nc3ccccc3s2)c1)NO` the value was 76.7%; for `O=C(CCCCCCOc1ccc(-c2nc3cc(Cl)ccc3s2)cc1)NO`, 42.7%.
As for `COc1ccc(-c2nc3cc(Cl)ccc3s2)cc1OCCCCCCC(=O)NO`, the inhibition in [1] was determined as 37.2%.
In turn, `O=C(CCCCCCOc1ccc(-c2nc3ccccc3s2)cc1Cl)NO` registered an inhibition in data set [1] of 18.3%.
Take `O=C(CCCCCCOc1ccc(-c2nc3ccc(Cl)cc3s2)cc1)NO`: the inhibition in [1] was 21.7%.
Consider `Cc1cc(-c2nc3ccccc3s2)ccc1OCCCCCCC(=O)NO`, for which, in data set [1], the inhibition came out at 39.3%.
Same read-out and setting: for `O=C(CCCOc1ccc(-c2nc3ccccc3s2)cc1)NO` the value was 3.33%.
The compound `O=C(CCCCCCOc1ccc(-c2nc3ccccc3s2)cc1F)NO` returned an inhibition in [1] of 46.2%.
For `O=C(CCCCCCOc1ccc(-c2nc3ccccc3s2)cc1)NO`, in [1], the inhibition amounted to 84.2%.
In data set [1], `O=C(COc1ccc(-c2nc3ccccc3s2)cc1)NO` had an inhibition of 34.8%.
In data set [1], `COc1cc(-c2nc3ccccc3s2)cc(OC)c1OCCCCCCC(=O)NO` gave an inhibition of 81.7%.
`O=C(CCCCCCOc1cccc(-c2nc3ccccc3s2)c1Cl)NO` came in with an inhibition in data set [1] of 62%.
As for `O=C(CCCCCCOc1ccc(-c2nc3ccccc3s2)c(Cl)c1)NO`, the inhibition in data set [1] came to 33.2%.
The same measure, in the same setting: the figure for `O=C(CCCCCCCOc1cccc(-c2nc3ccccc3s2)c1)NO` is 65.3%.
The same measure, in the same setting: for `O=C(CCCCOc1ccc(-c2nc3ccccc3s2)cc1)NO` the value was 56%; for `O=C(CCCCOc1cccc(-c2nc3ccccc3s2)c1)NO`, 45.7%.
Same read-out and setting: the figure for `O=C(CCCCCCOc1ccc(-c2nc3ccccc3s2)c(F)c1)NO` is 83%; for `COc1ccc(-c2nc3ccccc3s2)cc1OCCCCCCCC(=O)NO` it is 28.2%; for `COc1ccc2nc(-c3ccc(OCCCCCCC(=O)NO)cc3)sc2c1` it is 51.7%.
As for `COc1cc(-c2nc3ccccc3s2)ccc1OCCCCCCC(=O)NO`, in data set [1], the inhibition stood at 74.2%.
